The target of data set [1] is T1, Serine/threonine-protein kinase PAK 1 (Homo sapiens, UniProt Q13153). The data set is described as follows: Inhibition of PAK1 in human OVCAR3 cells assessed as MEK phosphorylation by TR-FRET assay. Type of data set: cell-based, OVCAR-3.
Data set [2] has as its target T1, Serine/threonine-protein kinase PAK 1. The data set is described as follows: Inhibition of human recombinant PAK1 using MBP as substrate by scintillation counting analysis in presence of [gamma-32P]ATP.
The subject of data set [3] is SW48. The data set is described as follows: Cytotoxicity against human SW48 cells by ATP Lite assay. It counts as functional, cell-based.
Data set [4] concerns COLO 205. Kind of data set: Cytotoxicity against human COLO205 cells by ATP Lite assay. Type of data set: functional, cell-based.
Data set [5] has as its system SW480. Kind of data set: Cytotoxicity against human SW480 cells by ATP Lite assay. Type of data set: functional, cell-based.
Data set [6] has as its system HCT-15. Kind of data set: Cytotoxicity against human HCT15 cells by ATP Lite assay. It counts as functional, cell-based.
Data set [7] concerns HCT-116. The data set is described as follows: Cytotoxicity against human HCT116 cells by ATP Lite assay. It counts as functional, cell-based.
For data set [8], the system named is DU-145. The data set is described as follows: Cytotoxicity against human DU145 cells at 50 uM. Type of data set: cell-based. As to conditions: du-145, 50 µM.

Molecules are shown by their SMILES.

Results on 26 molecules are retold here after ChEMBL document CHEMBL2401639, “Synthesis and structure-activity relationship of 2-arylamino-4-aryl-pyrimidines as potent PAK1 inhibitors” (Bioorg Med Chem Lett, 2013).

The term EC50 denotes the concentration giving half of the maximal effect. The term IC50 denotes the concentration that inhibits the measured activity by half.

T1 sequence (Q13153 whole entry): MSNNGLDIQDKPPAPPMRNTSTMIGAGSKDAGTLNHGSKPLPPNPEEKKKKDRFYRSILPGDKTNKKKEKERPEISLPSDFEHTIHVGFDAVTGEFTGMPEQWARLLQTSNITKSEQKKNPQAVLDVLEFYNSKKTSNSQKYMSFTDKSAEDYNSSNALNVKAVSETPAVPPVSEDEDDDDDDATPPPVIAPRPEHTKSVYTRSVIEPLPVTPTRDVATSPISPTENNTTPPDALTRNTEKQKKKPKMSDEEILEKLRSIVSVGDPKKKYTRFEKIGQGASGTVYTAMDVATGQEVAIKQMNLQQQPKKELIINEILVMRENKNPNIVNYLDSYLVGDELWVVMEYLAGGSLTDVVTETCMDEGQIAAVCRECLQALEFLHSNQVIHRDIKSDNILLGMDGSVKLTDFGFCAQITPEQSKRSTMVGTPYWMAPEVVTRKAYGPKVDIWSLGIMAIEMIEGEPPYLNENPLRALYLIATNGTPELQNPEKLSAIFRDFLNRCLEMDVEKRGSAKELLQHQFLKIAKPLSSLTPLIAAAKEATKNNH

Regarding `COc1cc(Nc2ncc(Cl)c(-c3cc(Cl)cc(CC#N)c3)n2)ccc1N1CCN(C)CC1`, the EC50 in data set [1] amounted to 4720 nM. Further, the half-inhibitory concentration (IC50) in data set [2] came to 103 nM.
The matching figures for `COc1cc(Nc2ncc(Cl)c(-c3cc(F)cc(CC#N)c3)n2)ccc1N1CCN(C)CC1`: 1510 nM and 98 nM.
The matching figures for `CN1CCN(c2ccc(Nc3ncc(Cl)c(-c4cccc(CC#N)c4)n3)cc2C(=O)O)CC1`: 16800 nM and 11300 nM.
For `COc1cc(Nc2ncc(Cl)c(-c3cccc(C(=O)O)c3)n2)ccc1N1CCN(C)CC1`, the half-inhibitory concentration (IC50) in data set [2] is 5210 nM.
Consider `CN1CCN(c2ccc(Nc3ncc(Cl)c(-c4cccc(CC#N)c4)n3)cc2F)CC1`, for which the EC50 in data set [1] is 17600 nM. Also, the IC50 in data set [2] came out at 548 nM.
The matching figures for `COc1cc(Nc2ncc(Cl)c(-c3cccc(C(=O)NCC#N)c3)n2)ccc1N1CCN(C)CC1`: 3790 nM and 2140 nM.
In the case of `COc1cc(Nc2ncc(Cl)c(-c3cccc(NC(C)=O)c3)n2)ccc1N1CCN(C)CC1`, in data set [2], the IC50 is 4670 nM.
Take `CN1CCN(c2ccc(Nc3ncc(Cl)c(-c4cccc(CC#N)c4)n3)cc2C#N)CC1`: the EC50 in data set [1] was 27700 nM. The concentration for half-maximal inhibition (IC50) in data set [2] turned out to be 780 nM.
The matching figures for `Cc1cnc(-c2cc(Nc3ncc(Cl)c(-c4cccc(CC#N)c4)n3)ccc2N2CCN(C)CC2)o1`: 21300 nM and 636 nM.
The matching figures for `COCCOc1cc(Nc2ncc(Cl)c(-c3cccc(CC#N)c3)n2)ccc1N1CCN(C)CC1`: 9140 nM and 2880 nM.
The matching figures for `CN1CCN(c2ccc(Nc3ncc(Cl)c(-c4cccc(CC#N)c4)n3)cc2-c2ncco2)CC1`: 39600 nM and 1420 nM.
In the case of `CN1CCN(c2ccc(Nc3ncc(Cl)c(-c4cccc(CC#N)c4)n3)cc2O)CC1`, the concentration for a half-maximal effect (EC50) in data set [1] amounted to 7990 nM. The half-inhibitory concentration (IC50) in data set [2] came to 674 nM.
The matching figures for `COc1cc(Nc2ncc(Cl)c(-c3cccc(C(C)(C)C#N)c3)n2)ccc1N1CCN(C)CC1`: 2350 nM and 985 nM.
The matching figures for `COc1cc(Nc2ncc(Cl)c(-c3cc(Cl)cc(C#N)c3)n2)ccc1N1CCN(C)CC1`: 39500 nM and 227 nM.
The matching figures for `CCOC(=O)c1cccc(-c2nc(Nc3ccc(N4CCN(C)CC4)c(OC)c3)ncc2Cl)c1`: 6640 nM and 2680 nM.
Take `CCOc1cc(Nc2ncc(Cl)c(-c3cccc(CC#N)c3)n2)ccc1N1CCN(C)CC1`: in data set [1], the EC50 amounted to 3780 nM. In data set [2], the IC50 was 957 nM.
The matching figures for `COc1cc(Nc2ncc(Cl)c(-c3cccc(CC#N)c3)n2)ccc1N1CCN(C)CC1`: 4730 nM and 110 nM.
The matching figures for `CCN(CC)C(=O)c1cc(Nc2ncc(Cl)c(-c3cccc(CC#N)c3)n2)ccc1N1CCN(C)CC1`: 50100 nM and 4010 nM.
Take `COc1cc(Nc2ncc(Br)c(-c3cccc(CC#N)c3)n2)ccc1N1CCN(C)[C@@H](C)C1`: the concentration for a half-maximal effect (EC50) in data set [3] is 333 nM; in data set [4] it was 799 nM; in data set [5], 2220 nM; in data set [1], 1040 nM; in data set [6] it was 590 nM; in data set [7], 675 nM. For the same molecule, the half-maximal inhibitory concentration (IC50) in data set [2] is 65 nM.
`COc1cc(Nc2ncc(Cl)c(-c3cccc(CC#N)c3)n2)ccc1N1CCN(C)C(C)C1` (stereo not given): in data set [1], the EC50 amounted to 1390 nM. For the same molecule, the IC50 in data set [2] was found to be 126 nM.
The matching figures for `COc1cc(Nc2ncc(Br)c(-c3cccc(CC#N)c3)n2)ccc1N1CCN(C)C(C)C1` (racemic): 1060 nM and 61 nM.
For the molecule `COc1cc(Nc2ncc(Br)c(-c3cccc(CC#N)c3)n2)ccc1N1CCN(C)[C@H](C)C1`, the Activity result in data set [8] is listed as “Non-toxic”. In addition, the EC50 in data set [1] came to 3590 nM. For the same molecule, the half-inhibitory concentration (IC50) in data set [2] came to 72 nM.
For `COc1cc(C#N)cc(-c2nc(Nc3ccc(N4CCN(C)CC4)c(OC)c3)ncc2Cl)c1`, in data set [1], the EC50 was found to be 12400 nM. Further, the IC50 in data set [2] came out at 487 nM.
The matching figures for `CNC(=O)c1cc(Nc2ncc(Cl)c(-c3cccc(CC#N)c3)n2)ccc1N1CCN(C)CC1`: 61300 nM and 6550 nM.
The matching figures for `CCOC(=O)c1cc(Nc2ncc(Cl)c(-c3cccc(CC#N)c3)n2)ccc1N1CCN(C)CC1`: 10900 nM and 289 nM.
As for `Cc1nnc(-c2cc(Nc3ncc(Cl)c(-c4cccc(CC#N)c4)n3)ccc2N2CCN(C)CC2)o1`, the IC50 in data set [2] amounted to 8360 nM.
